Common to all, as to experiment: NCI anticancer screen, dose series, 48 h
Assay [1] concerns UACC-62 melanoma.
Assay [2] has as its system HCT-116 colon.
In assay [3] the test system is HOP-92 NSCLC.
Assay [4] has as its system SF-295 CNS.
Assay [5] deals with SF-539 CNS.
Assay [6] relates to UACC-257 melanoma.
Assay [7] deals with NCI-H226 lung.
The test system of assay [8] is NCI-H460 lung.
The test system of assay [9] is NCI-H23 lung.

The record followed here is PubChem BioAssay (NCI).

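Tested at 5 concentrations; 48 h exposure; 96-well plates; endpoints linearly interpolated, else capped at highest concentration. Here, GI50 denotes the concentration required for 50% inhibition of growth. The concentration for full growth arrest is given as TGI.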 Peptide text beside a SMILES is read from it. * marks the point of attachment. OSu = O=C1CCC(=O)N1O*; OBn = c1ccc(CO*)cc1; Bn = c1ccc(C*)cc1

On to `O=Cc1cc(O)c(O)c(/C=N/n2c3ccccc3c3ccccc32)c1`, for which the TGI in [1] came out at 22.9 µM; in assay [2], 31.2 µM; in [3], 9.23 µM; in assay [4], 27.7 µM; in assay [5] it was 24.7 µM; in assay [6], 27.9 µM. Moreover, the TGI in [7] was found to be 33.2 µM; in assay [8], 36.7 µM; in [9], 34.7 µM.
On to `O=C(c1ccccc1)n1[nH]c(=O)n(-c2ccc(Cl)cc2)c1=O`, for which the TGI in [1], in [2], in [4], in assay [6], in [7] and in assay [8] was > 100 µM throughout. The TGI in assay [9] was > 100 µM.
For the molecule `N#CI1OC(C(F)(F)F)(C(F)(F)F)c2ccccc21`, the TGI in assay [1] is 38.8 µM; in assay [2], 30.4 µM; in [3], 42.5 µM; in [4] it was > 100 µM; in [5], 36.9 µM; in assay [6] it was 51.8 µM. Besides, the TGI turned out to be 49 µM in assay [7], 72.5 µM in assay [8] and 36 µM in [9].
For the molecule `CCOC(=O)O/N=C1/C(c2c(O)[nH]c3ccccc23)=Nc2ccccc21`, the TGI was 23 µM in assay [1]; 13.6 µM in assay [2]; > 100 µM in assay [3]; 48.8 µM in assay [4]; 24.6 µM in assay [6]; 15.8 µM in assay [8]. The molecule also displayed a TGI in [9] of 25.5 µM.
In the case of `O=[N+]([O-])c1ccc(Cl)cc1N/N=C/c1cccs1`, the TGI in [1], in [2], in [4], in [5], in [6] and in [7] was > 100 µM each time. The TGI in assay [8] and in assay [9] was > 100 µM throughout.
Take `CC12CCC(C1)C(C)(C)C2OC(=O)c1ccccc1C(=O)O` (stereo unspecified): the TGI in assay [1], in assay [2], in [3], in [4], in assay [6] and in assay [7] was > 100 µM throughout. Further, the TGI in assay [8] and in assay [9] was > 100 µM in each case.
As to `C=CCc1cccc2cc(C(=O)Nc3nc(C45CC6CC(CC(C6)C4)C5)cs3)c(=O)oc12`, the TGI in assay [3] is 43.1 µM; in assay [4] it was 31.3 µM; in assay [5] it was > 100 µM; in assay [6] it was > 100 µM; in [7], > 100 µM; in assay [8], > 100 µM. For the same molecule, the TGI in [9] was 59.2 µM.
On to `COc1cc(C)cc(OC)c1/C=C/C(=O)O`, for which the TGI in [1], in [2], in [3], in assay [4], in assay [6] and in assay [7] was > 100 µM throughout. Moreover, the TGI in assay [8] and in [9] was > 100 µM in each case.
For `CCCC1C(C#N)(C#N)C(C#N)=C(N)C1(C)C(C)=O` (stereo unspecified), the TGI in assay [1], in assay [2], in assay [3], in [4], in assay [5] and in [6] was > 100 µM in each case. The TGI in [7] and in assay [9] was > 100 µM in each case.
Regarding `CCOC(=O)C12C(=O)CCN1CCc1ccccc1C2C` (stereo unspecified), the TGI in assay [1], in assay [2], in assay [3], in [4], in [5] and in assay [6] was > 100 µM throughout. Further, the TGI in assay [7] and in assay [9] was > 100 µM in each case.
With `C/C(=N\NC(=O)N/N=C(\C)c1ccccn1)c1ccccn1`, the TGI in [1] was > 100 µM; in [2] it was > 100 µM; in [3] it was > 100 µM; in assay [4], > 100 µM; in [5] it was 3.04 µM; in assay [6], > 100 µM. Moreover, the TGI in assay [7] and in assay [8] was > 100 µM each time.
On to `CC(CN(C)C)C(=O)/C=C/c1ccc(Cl)c(Cl)c1` (stereo unspecified), for which the TGI in [1] stood at 3.69 µM; in assay [2], 2.99 µM; in [3], 3.48 µM; in [4], 12.9 µM; in assay [6], 5.61 µM; in [7], 5.57 µM. In addition, the TGI was found to be 5.2 µM in assay [8] and 5.11 µM in [9].
For the molecule `COc1ccc(/C=C/C(c2cc(OC)c(OC)c(OC)c2)n2cncn2)cc1O` (stereo unspecified), the GI50 in assay [1] is 0.0476 µM; in assay [2], 0.041 µM; in assay [3], 67 µM; in assay [6], > 100 µM; in [7] it was 5.93 µM; in [8], 0.0423 µM. For the same molecule, the GI50 in assay [9] is 3.47 µM. The TGI was > 100 µM in [1]; > 100 µM in assay [2]; > 100 µM in [3]; > 100 µM in assay [6]; > 100 µM in assay [7]; 51.9 µM in assay [8]. Moreover, the TGI in assay [9] is > 100 µM.
For the molecule `O=C1C(CN2CCCC2)CCCC1CN1CCCC1` (stereo unspecified), the TGI in assay [1] is 31.9 µM; in assay [2] it was 3.28 µM; in assay [4], > 56.4 µM; in [5], 16.1 µM; in assay [6], 4.39 µM; in assay [7] it was 59.1 µM. Moreover, the values for the TGI in assay [8] and in assay [9] were 43.5 µM and 4.27 µM, respectively.
`Cc1nn(-c2ccccc2)c2c1N=C(C(=O)O)CC(c1ccccc1)=N2`: the TGI in assay [1], in [2], in assay [3], in assay [4], in [5] and in [6] was > 10 µM each time. Further, the TGI in [9] was > 10 µM.
Regarding `CC(C)CC(NC(=O)C(N)CCC(=O)OCc1ccccc1)C(=O)NC(COCc1ccccc1)C(=O)NC(Cc1ccccc1)C(=O)ON1C(=O)CCC1=O` (stereo unspecified) (H-E(OBn)LS(Bn)F-OSu; configuration not given here), the TGI in assay [1] came to 70 µM; in assay [2] it was 33.1 µM; in assay [3], 39.8 µM; in assay [4], 62.7 µM; in assay [6] it was 66.1 µM; in [8], 71.8 µM. This molecule registered a TGI in assay [9] of 54.3 µM.
